We go through one compound from publication PMC4890124, “Antimicrobial activity, improved cell selectivity and mode of action of short PMAP-36-derived peptides against bacteria and Candida” (Scientific Reports, 2016).

Assay [1] concerns Bacillus subtilis CMCC 63501. Format: cell-based. The following applies: CMCC 63501, 18 h. How it is done:
(§1) The peptide antibacterial activity was determined against both gram-positive and gram-negative bacteria strains, including Escherichia coli ATCC 25922, Escherichia coli UB1005, Salmonella enterica serovar typhimurium C77-31, Staphylococcus aureus ATCC 29213, Staphylococcus aureus ATCC 25923, Bacillus subtilis CMCC 63501, and Staphylococcus epidermidis ATCC 12228. Clinically isolated Escherichia coli EC183 was provided by the 4th Affiliated Hospital of Harbin Medical University. MIC of the peptides was measured using a modified version of the National Committee for Clinical Laboratory Standards (NCCLS) broth microdilution method as described previously. The bacterial strains were inoculated and grown to mid-log phase in fresh Mueller-Hinton broth (MHB) at 37 °C. Bacterial inoculum suspensions were prepared at a final concentration of approximately 1 × 10^5 CFU/ml. Peptides were 2-fold serially diluted to make different concentrations, from 0.5 to 256 μM. Equal volumes of inoculum suspensions were then added to each well of a sterile 96-well plate with different concentrations of peptides, and the plate was incubated for 18 h at 37 °C. Broth with or without bacteria was employed as the positive control or the negative control, respectively. MIC was defined as the lowest concentration of peptides that prevented visible turbidity by visual inspection. […] After overnight incubation at 37 °C, MBC was defined as the lowest concentration of peptides that killed at least 99.9% of the initial inoculums. Experiments were performed in triplicate with three biological replicates.

Assay [2] concerns Salmonella enterica serovar typhimurium C77-31. The class given is cell-based. The following applies: three independent experiments. How it is done: as §1
Assay [3] deals with Staphylococcus aureus ATCC 25923. Format: cell-based. The conditions noted are these: ATCC 25923, 18 h. How it is done:
as §1

Assay [4] concerns Clinically isolated Escherichia coli EC183. Format: cell-based. The following applies: Clinically isolated EC183, 18 h. How it is done: as §1
For assay [5], the system named is Staphylococcus aureus ATCC 29213. Format: cell-based. The conditions noted are these: ATCC 29213, 18 h. The method, then: as §1
Assay [6] has as its system Escherichia coli UB1005. The class given is cell-based. The conditions noted are these: UB1005, 18 h. How it is done:
as §1

The subject of assay [7] is Staphylococcus epidermidis ATCC 12228. The class given is cell-based. The following applies: ATCC 12228, 18 h. The method, then:
as §1

Assay [8] relates to Escherichia coli ATCC 25922. Format: cell-based. The conditions noted are these: ATCC 25922, 18 h. How it is done:
as §1

The test system of assay [9] is C. albicans CA276 (clinical isolate). The experiment in a line: microbe, parasite or virus in culture. The conditions noted are these: CA276 (clinical isolate, 48 h). Format: cell-based, Candida albicans. An excerpt:
(§2) The antifungal activities were monitored in RPMI-1640 broth medium by a 2-fold microdilution assay according to the Clinical and Laboratory Standards Institute (CLSI) methods. The Candida albicans CGMCC 2.2086, Candida tropicalis CGMCC 2.1975, and Candida krusei CGMCC 2.1857 fungal strains were purchased from the China General Microbiological Culture Collection Center (CGMCC, Beijing, China). Clinically isolated Candida albicans CA2761 was provided by the 4th Affiliated Hospital of Harbin Medical University. Briefly, fungal strains were cultured on YPD agar plates (1% peptone, 0.5% yeast extract, 1% glucose and 2% agar) at 28 °C to prepare Candida suspensions with a turbidity of a 0.5 McFarland standard. A total of 50 μl inoculum cell suspension diluted in RPMI-1640 broth medium was added to an equal volume of peptide solution to achieve a final peptide concentrations ranging from 0.25 μM to 128 μM in a 96-well plate. Pure broth alone or with inoculum suspensions was used as the negative control or the positive control, respectively. The plate was incubated at 28 °C for 48 h. MIC was considered the lowest concentration at which no fungal growth was visually observed under experimental conditions. […] After 48 h incubation at 28 °C, MFC was defined as the lowest concentration of peptides that killed at least 99.9% of the initial inoculums. Experiments were performed in triplicate with three biological replicates.

For assay [10], the system named is Candida albicans CGMCC 2.2086. Kind of assay: microbe, parasite or virus in culture. The class given is cell-based. The conditions noted are these: CGMCC 2.2086, 48 h.
Text: as §2

In assay [11] the test system is Candida krusei CGMCC 2.1857. Kind of assay: microbe, parasite or virus in culture. The class given is cell-based. The following applies: CGMCC 2.1857, 48 h.
Text: as §2

Assay [12] has as its system Candida tropicalis CGMCC 2.1975. The experiment in a line: microbe, parasite or virus in culture. The following applies: CGMCC 2.1975, 48 h. The class given is cell-based.
Text: as §2

In brackets after ≈: the same amount, converted by molar mass. Peptide text beside a SMILES is read from it.

By MFC is commonly meant the smallest concentration meeting the test's criterion for killing the fungus. Take `CC[C@H](C)[C@H](NC(=O)[C@H](Cc1c[nH]c2ccccc12)NC(=O)[C@H](CCCCN)NC(=O)[C@H](CC(C)C)NC(=O)[C@@H](NC(=O)[C@H](CCCCN)NC(=O)CNC(=O)[C@@H](NC(=O)[C@H](CCCCN)NC(=O)[C@H](CCCCN)NC(=O)[C@H](CC(C)C)NC(=O)[C@H](CCCNC(=N)N)NC(=O)[C@H](CCCCN)NC(=O)[C@H](CCCNC(=N)N)NC(=O)[C@@H](NC(=O)[C@H](CCCCN)NC(=O)[C@H](CCCCN)NC(=O)[C@H](CCCNC(=N)N)NC(=O)[C@H](CC(C)C)NC(=O)[C@H](CCCNC(=N)N)NC(=O)[C@@H](N)CCCNC(=N)N)[C@@H](C)O)[C@@H](C)CC)C(C)C)C(N)=O` [RI21] (H-RRLRKKTRKRLKKIGKVLKWI-NH2): in assay [1], the “MBC B. subtilis 63501” value was found to be 4 µM (≈ 10.8 µg/mL) and the “MIC B. subtilis 63501” value came out at 1 µM (≈ 2.7 µg/mL). In assay [2] (broth microdilution, MHB, ~1 × 10^5 CFU/ml, 18 h at 37 °C, visual), the “MIC S. typhi C77-31” value is 1 µM (≈ 2.7 µg/mL). The “MBC S. typhi C77-31” value in assay [2] (lowest concentration killing at least 99.9% of initial inoculum) came out at 2 µM (≈ 5.41 µg/mL). Also, in assay [3], the MBC S. aureus 25923 turned out to be 4 µM (≈ 10.8 µg/mL) and the MIC S. aureus 25923 amounted to 4 µM (≈ 10.8 µg/mL). Also, in assay [4], the “MBC E. coli EC183” value turned out to be 2 µM (≈ 5.41 µg/mL) and the “MIC E. coli EC183” value was 1 µM (≈ 2.7 µg/mL). In assay [5], the MBC S. aureus 29213 turned out to be 4 µM (≈ 10.8 µg/mL) and the MIC S. aureus 29213 was found to be 4 µM (≈ 10.8 µg/mL). Also, in [6], the MBC E. coli 1005 stood at 2 µM (≈ 5.41 µg/mL) and the MIC E. coli 1005 amounted to 2 µM (≈ 5.41 µg/mL). In addition, in assay [7], the “MBC S. epidermidis 12228” value came out at 8 µM (≈ 21.6 µg/mL) and the “MIC S. epidermidis 12228” value stood at 4 µM (≈ 10.8 µg/mL). Further, in assay [8], the “MBC E. coli 25922” value came out at 8 µM (≈ 21.6 µg/mL) and the “MIC E. coli 25922” value worked out at 2 µM (≈ 5.41 µg/mL). Moreover, in assay [9], the MFC amounted to 32 µM (≈ 86.5 µg/mL) and the MIC came out at 8 µM (≈ 21.6 µg/mL). Further, the MFC in assay [10] (read-out: MFC C. albicans 2.2086) is 16 µM (≈ 43.3 µg/mL). In assay [10] (read-out: MIC C. albicans 2.2086), the MIC is given as 8 µM (≈ 21.6 µg/mL). The MFC in assay [11] (read-out: MFC C. krusei 2.1857) turned out to be 4 µM (≈ 10.8 µg/mL). In assay [11] (read-out: MIC C. krusei 2.1857), the MIC came to 2 µM (≈ 5.41 µg/mL). Besides, the minimal fungicidal concentration (MFC) in assay [12] (read-out: MFC C. tropicalis 2.1975) amounted to 2 µM (≈ 5.41 µg/mL). The MIC in assay [12] (read-out: MIC C. tropicalis 2.1975) amounted to 1 µM (≈ 2.7 µg/mL).
